The values that follow come from US11450409B2, “Determination of NFkB pathway activity using unique combination of target genes” (InnoSIGN B.V., priority 2015, dated 2022).

The subject of experiment [1] is NFkB cellular signaling pathway. The experiment can be described thus: NFkB pathway activity prediction, Bayesian network model (evidence curated list), THP-1 monocytic cells. The format is cell-based, human. To be noted: THP-1 cells treated with CoQ10 and stimulated with LPS (group 3). An excerpt:
(§1) Herein, an exemplary Bayesian network model as shown in FIG. 2 was first used to model the transcriptional program of the NFkB cellular signaling pathway in a simple manner. The model consists of three types of nodes: (a) a transcription factor (TF) element (with states “absent” and “present”) in a first layer 1; (b) target genes TG1, TG2, TGn (with states “down” and “up”) in a second layer 2, and; (c) measurement nodes linked to the expression levels of the target genes in a third layer 3. These can be microarray probesets PS1,1, PS1,2, PS1,3, PS2,1, PSn,1, PSn,m (with states “low” and “high”), as preferably used herein, but could also be other gene expression measurements such as RNAseq or RT-qPCR.
A suitable implementation of the mathematical model, herein, the exemplary Bayesian network model, is based on microarray data. The model describes (i) how the expression levels of the target genes depend on the activation of the TF element, and (ii) how probeset intensities, in turn, depend on the expression levels of the respective target genes. For the latter, probeset intensities may be taken from fRMA pre-processed Affymetrix HG-U133Plus2.0 microarrays, which are widely available from the Gene Expression Omnibus (GEO, www.ncbi.nlm.nih.gov/geo) and ArrayExpress (www.ebi.ac.uk/arrayexpress). […]

The test system is the same in experiment [2]. Particulars: reported in literature (Schmelzer and Döring 2010), human THP-1 monocytes; cited from earlier work.
Experiment [3] shares this test system. The experiment can be described thus: NFkB pathway activity prediction, Bayesian network model (evidence curated list, 19, 13 and 7 target genes shortlists), NHBE samples from E-MTAB-1312 stimulated with TNFα. Particulars: NHBE cells. The format is cell-based, human.
Source text: as §1
A suitable implementation of the mathematical model, herein, the exemplary Bayesian network model, is based on microarray data. The model describes (i) how the expression levels of the target genes depend on the activation of the TF element, and (ii) how probeset intensities, in turn, depend on the expression levels of the respective target genes. For the latter, probeset intensities may be taken from fRMA pre-processed Affymetrix HG-U133Plus2.0 microarrays, which are widely available from the Gene Expression Omnibus (GEO, www.ncbi.nlm.nih.gov/geo) and ArrayExpress (www.ebi.ac.uk/arrayexpress).
Once the exemplary Bayesian network model is built and calibrated (see below), the model can be used on microarray data of a new sample by entering the probeset measurements as observations in the third layer 3, and inferring backwards in the model what the probability must have been for the TF element to be “present”. Here, “present” is considered to be the phenomenon that the TF element is bound to the DNA and is controlling transcription of the cellular signaling pathway's target genes, and “absent” the case that the TF element is not controlling transcription. […]

The test system is the same in experiment [4]. The experiment is described as follows: NFkB pathway activity prediction, Bayesian network model (broad literature list), NHBE samples from E-MTAB-1312 stimulated with TNFα. To be noted: NHBE cells. The format is cell-based, human. An excerpt:
The list of target genes of the NFkB cellular signaling pathway constructed based on literature evidence following the procedure as described herein (“evidence curated list of target genes”, see Table 3) is compared here with a “broad literature list” of putative target genes of the NFkB cellular signaling pathway constructed not following above mentioned procedure. The alternative list is a compilation of genes attributed to responding to activity of the NFkB cellular signaling pathway provided within Thomson-Reuters's Metacore (last accessed Sep. 6, 2013). This database was queried for genes that are transcriptionally regulated directly downstream of the family of NFkB proteins, i.e., NFKB1 or p50/p105, NFKB2 or p52/p100, RELA or p65, REL, and RELB. […] A further selection was made based on the number of publication references supporting the attributed transcriptional regulation of the respective gene by the NFkB family. Genes that had ten or more references were selected for the broad literature list. In other words, no manual curation of the references and no calculation of an evidence score based on the experimental evidence was performed. […] The expression of the genes was measured by 56 probesets on the Affymetrix HG-U133Plus2.0 microarray platform which were selected using the Bioconductor plugin of R and one manually added probeset for DEFB4A, see Table 7. […]

The test system is the same in experiment [5]. The experiment is described as follows: NFkB pathway activity prediction, linear model (evidence curated list), NHBE samples from E-MTAB-1312 stimulated with TNFα. The format is cell-based, human. Particulars: NHBE cells. An excerpt: Further to the exemplary Bayesian network model described above, an exemplary linear model was used to model the transcriptional program of the NFkB cellular signaling pathway in a simple manner. The structure of the model corresponded to the one shown in FIG. 3 of the published international patent application WO 2014/102668 A2 (“Assessment of cellular signaling pathway activity using linear combination(s) of target gene expressions”). More specifically, the exemplary linear model consisted of a TF node, a layer of target gene expression and a layer of mRNA expression levels and made use of continuous expression data, all target genes from the evidence curated list of target genes (see Table 3) with all probesets included and without the use of a pseudocount.
In the diagram, the vertical axis indicates the activity score, wherein positive values correspond to an active NFkB cellular signaling pathway and negative values correspond to a passive NFkB cellular signaling pathway. NHBE cell lines were unstimulated or stimulated with different TNFα concentrations for different timings. All unstimulated healthy cells (groups 1 to 4) are correctly predicted to have a passive NFkB cellular signaling pathway. […]

[6] abbreviates: 0.5 h stimulation, all TNFα concentrations (groups 5, 9, 13).

`COC1=C(OC)C(=O)C(C/C=C(\C)CC/C=C(\C)CC/C=C(\C)CC/C=C(\C)CC/C=C(\C)CC/C=C(\C)CC/C=C(\C)CC/C=C(\C)CC/C=C(\C)CCC=C(C)C)=C(C)C1=O` [CoQ10, Coenzyme Q10]: the “predicted NFkB cellular signaling pathway activity” value in experiment [1] was “high predicted NFkB cellular signaling pathway activities”. Moreover, the “effect on NFkB cellular signaling pathway activity” value in experiment [2] is “limited”.

With TNFα, the “predicted NFkB cellular signaling pathway activity” value in experiment [3] (2 and 4 hour stimulation, all concentrations tested) is given as “full-blown NFkB cellular signaling pathway activity”; in experiment [3] (0.5 h stimulation, low/medium/high TNFα (groups 5, 9, 13)) it was “too short for the NFkB cellular signaling pathway to become active”; in experiment [3] (24 hours stimulation (groups 8, 12, 16)), “appears to lower the NFkB cellular signaling pathway activity”; in experiment [4] (setting [6]), “too short for the NFkB cellular signaling pathway to become active”; in experiment [4] (stimulation times of 2-24 hours) it was “resulted in an active NFkB cellular signaling pathway”. Besides, the entries for the “predicted NFkB cellular signaling pathway activity score” value in experiment [5] (setting [6]) and in experiment [5] (stimulation times of 2 to 24 hours) were “too short for the NFkB cellular signaling pathway to become active” and “resulted in an active NFkB cellular signaling pathway”, respectively.
